Literature values as cited in PMC9516332 (Frontiers in Oncology, 2022).
Like-named read-outs stand apart in the source and are kept apart here.

Key:
[1] = target: T1, panel of 255 wild-type kinases (Homo sapiens, UniProt O15146); conditions: MUSK, 1 µmol/L single concentration, cited from earlier work
T1 sequence (O15146 24-869): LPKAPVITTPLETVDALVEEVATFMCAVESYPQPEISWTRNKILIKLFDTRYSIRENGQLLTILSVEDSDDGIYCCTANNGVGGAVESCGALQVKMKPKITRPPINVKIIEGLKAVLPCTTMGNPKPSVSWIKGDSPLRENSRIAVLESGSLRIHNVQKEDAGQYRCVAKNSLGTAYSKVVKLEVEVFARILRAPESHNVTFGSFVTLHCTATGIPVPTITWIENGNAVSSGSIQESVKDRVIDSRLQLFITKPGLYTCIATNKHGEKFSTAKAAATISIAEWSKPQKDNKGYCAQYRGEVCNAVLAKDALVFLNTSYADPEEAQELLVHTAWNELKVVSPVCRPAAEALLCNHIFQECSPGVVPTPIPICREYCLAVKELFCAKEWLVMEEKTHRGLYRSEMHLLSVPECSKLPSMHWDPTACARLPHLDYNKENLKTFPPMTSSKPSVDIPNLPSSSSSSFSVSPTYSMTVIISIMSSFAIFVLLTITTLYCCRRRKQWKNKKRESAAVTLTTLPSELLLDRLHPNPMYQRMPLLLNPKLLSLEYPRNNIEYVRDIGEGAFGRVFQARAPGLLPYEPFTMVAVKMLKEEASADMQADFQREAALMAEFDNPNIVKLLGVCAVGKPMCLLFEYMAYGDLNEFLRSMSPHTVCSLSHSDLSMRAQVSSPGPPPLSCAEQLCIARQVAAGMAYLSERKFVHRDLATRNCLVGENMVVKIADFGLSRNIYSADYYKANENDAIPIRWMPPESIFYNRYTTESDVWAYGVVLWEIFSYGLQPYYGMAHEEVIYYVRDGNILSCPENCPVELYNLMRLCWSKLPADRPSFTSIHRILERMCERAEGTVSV

[2] = target: panel of 255 wild-type kinases (Homo sapiens, UniProt P04626); conditions: cited from earlier work
[3] = target: panel of 255 wild-type kinases (Homo sapiens, UniProt P45983); conditions: kinase JNK1, 1 µmol/L single concentration, cited from earlier work
[4] = target: panel of 255 wild-type kinases (Homo sapiens, UniProt Q13164); conditions: kinase Erk5, 1 µmol/L single concentration, cited from earlier work
[5] = target: panel of 255 wild-type kinases (Homo sapiens, UniProt Q15208); conditions: NDR1, 1 µmol/L single concentration, cited from earlier work
[6] = target: panel of 255 wild-type kinases (Homo sapiens, UniProt Q15303); conditions: kinase HER4, 1 µmol/L single concentration, cited from earlier work
[7] = target: T2, panel of 255 wild-type kinases (Homo sapiens, UniProt Q8TDC3); conditions: cited from earlier work
T2 sequence (Q8TDC3 1-778): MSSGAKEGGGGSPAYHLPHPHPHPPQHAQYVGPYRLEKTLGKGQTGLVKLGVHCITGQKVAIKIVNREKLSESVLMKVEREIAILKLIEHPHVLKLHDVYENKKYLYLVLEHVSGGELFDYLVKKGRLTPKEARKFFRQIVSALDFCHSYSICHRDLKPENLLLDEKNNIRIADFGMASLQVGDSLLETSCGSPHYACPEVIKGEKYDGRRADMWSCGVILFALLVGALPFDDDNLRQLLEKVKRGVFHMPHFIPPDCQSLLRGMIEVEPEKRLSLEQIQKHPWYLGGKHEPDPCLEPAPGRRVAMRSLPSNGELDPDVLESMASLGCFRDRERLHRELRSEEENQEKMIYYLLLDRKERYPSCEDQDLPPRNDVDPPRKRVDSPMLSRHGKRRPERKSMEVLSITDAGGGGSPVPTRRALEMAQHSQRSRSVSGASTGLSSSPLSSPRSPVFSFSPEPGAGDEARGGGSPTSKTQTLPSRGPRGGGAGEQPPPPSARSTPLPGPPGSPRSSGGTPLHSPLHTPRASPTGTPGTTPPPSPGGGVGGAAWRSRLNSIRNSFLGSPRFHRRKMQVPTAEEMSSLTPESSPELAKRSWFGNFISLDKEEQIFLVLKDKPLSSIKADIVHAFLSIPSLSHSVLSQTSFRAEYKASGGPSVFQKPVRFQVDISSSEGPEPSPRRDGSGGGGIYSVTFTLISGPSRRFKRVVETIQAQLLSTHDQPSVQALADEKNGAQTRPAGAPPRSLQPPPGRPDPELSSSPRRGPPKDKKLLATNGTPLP

[8] = target: T3, panel of 255 wild-type kinases (Homo sapiens, UniProt Q96BR1); conditions: kinase SGK3, 1 µmol/L single concentration, cited from earlier work
T3 sequence (Q96BR1 1-496): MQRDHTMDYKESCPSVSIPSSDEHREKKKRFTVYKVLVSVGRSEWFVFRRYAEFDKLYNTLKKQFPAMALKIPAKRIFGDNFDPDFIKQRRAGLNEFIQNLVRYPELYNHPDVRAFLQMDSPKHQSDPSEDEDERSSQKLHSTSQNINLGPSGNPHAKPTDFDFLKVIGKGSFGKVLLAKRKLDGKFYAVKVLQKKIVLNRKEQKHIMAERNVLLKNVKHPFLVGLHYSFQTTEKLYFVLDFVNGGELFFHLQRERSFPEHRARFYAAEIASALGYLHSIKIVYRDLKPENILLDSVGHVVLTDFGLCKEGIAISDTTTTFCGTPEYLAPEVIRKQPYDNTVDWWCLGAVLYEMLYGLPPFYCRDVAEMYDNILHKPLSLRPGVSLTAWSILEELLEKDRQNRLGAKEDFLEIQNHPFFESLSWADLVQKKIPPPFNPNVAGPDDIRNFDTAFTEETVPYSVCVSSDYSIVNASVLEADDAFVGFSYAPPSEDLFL

[9] = ref DOI: 10.1158/1535-7163.MCT-18-0877
[10] = kinase HER2, 1 µmol/L single concentration, ref DOI: 10.1158/1535-7163.MCT-18-0877
[11] = BRSK1 kinase assay, 1 µmol/L single concentration, ref DOI: 10.1158/1535-7163.MCT-18-0877
[12] = ref DOI: 10.1371/journal.pone.0092146
[13] = BRSK1 kinase assay, 1 µmol/L single concentration, ref DOI: 10.1371/journal.pone.0092146

SMILES	%-inhibition, MUSK [1, 9]	%-inhibition at 1 µmol/L, HER2 [2, 10]	%-inhibition at 1 µmol/L, JNK1 [3, 9]	%-inhibition at 1 µmol/L, Erk5 [4, 9]	%-inhibition, NDR1 [5, 9]	%-inhibition at 1 µmol/L, HER4 [6, 9]	%-inhibition BRSK1 [7, 11]	%-inhibition at 1 µmol/L, SGK3 [8, 9]	%-inhibition BRSK1 [7]	%-inhibition, MUSK [1, 12]	%-inhibition at 1 µmol/L, HER2 [2]	%-inhibition at 1 µmol/L, JNK1 [3, 12]	%-inhibition at 1 µmol/L, Erk5 [4, 12]	%-inhibition, NDR1 [5, 12]	%-inhibition at 1 µmol/L, HER4 [6, 12]	%-inhibition BRSK1 [7, 13]	%-inhibition at 1 µmol/L, SGK3 [8, 12]	%-inhibition at 1 µmol/L, HER2 ([2]; kinase HER2, 1 µmol/L single concentration, ref DOI: 10.1371/journal.pone.0092146)
O=C(c1ccc(F)c(F)c1Nc1ccc(I)cc1F)N1CC(O)([C@@H]2CCCCN2)C1 [cobimetinib]	2.78%	-1.21%	-3%	1.71%	2.53%	11%	-13%	-4%										
CO[C@@H]1[C@H](N(C)C(=O)c2ccccc2)C[C@H]2O[C@]1(C)n1c3ccccc3c3c4c(c5c6ccccc6n2c5c31)C(=O)NC4 [midostaurin]	94%	63%	9%	-1.27%	31%	77%		16%	95%									
C=CC(=O)N1CCC[C@@H](n2nc(-c3ccc(Oc4ccccc4)cc3)c3c(N)ncnc32)C1 [ibrutinib]	1.76%	100%	-2.33%	4%	2.65%	99%	-7%	0.579%										
C[C@@H](Oc1cc(-c2cnn(C3CCNCC3)c2)cnc1N)c1c(Cl)ccc(F)c1Cl [crizotinib]										99%	-0.714%	0.431%	45%	-1.48%	-18%	12%	-3%	
Cc1cc(Nc2ncc(Cl)c(Nc3ccccc3S(=O)(=O)C(C)C)n2)c(OC(C)C)cc1C1CCNCC1 [ceritinib]	45%	9%	9%	94%	15%	51%	32%	-0.738%										
CC(C)(C)c1nc(-c2cccc(NS(=O)(=O)c3c(F)cccc3F)c2F)c(-c2ccnc(N)n2)s1 [dabrafenib]										16%		-1.12%	0.144%	-0.891%	23%	37%	0.0854%	50%
